Assay results as given in the supplement of paper PMC10883282.
± gives the standard deviation of the averaged measurements.

How the values were obtained:
Experiment in all cases: relative viability vs DMSO control (72 h) (fraction); higher = more viable cells
A204 = system: A204
Outline: (§1)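 Sarcoma cell lines were seeded in 384-well plates at densities chosen for 80–90% confluence, then 24 h later given 2.5 µl of serially diluted compound drawn from source plates spanning 10 mM to 0.0002 mM. They were held 72 h at 37 °C, 5% CO2, with 0.1% DMSO vehicle and a 5 µM positive control included. Relative viability was read with ATPLite as percent growth and averaged over up to triplicate wells. Rescaling placed full at 1 and none at 0.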

G401 = system: G401
Outline: as §1

HT1080 = system: HT1080
Outline: as §1

KHOS-240S = system: KHOS-240S
Outline: as §1

KHOS-NP = system: KHOS-NP
Outline: as §1

RD-ES = system: RD-ES
Outline: as §1

SK-ES-1 = system: SK-ES-1
Outline: as §1

SW1353 = system: SW1353
Outline: as §1

SW684 = system: SW684
Outline: as §1

SW872 = system: SW872
Outline: as §1

SW982 = system: SW982
Outline: as §1

SYO-1 = system: SYO-1
Outline: as §1

With `C[C@@H](Oc1cc(-c2cnn(C3CCNCC3)c2)cnc1N)c1c(Cl)ccc(F)c1Cl` [Crizotinib] the relative viability (A204; 0.00017 µM) was 1.07 ± 0.045, the relative viability (A204; 0.00051 µM) was 1.05 ± 0.042 and the relative viability (A204; 0.00152 µM) was 1.08 ± 0.034. The relative viability (A204; 0.00457 µM) was 1.08 ± 0.012, the relative viability (A204; 0.01372 µM) was 1.1 ± 0.014 and the relative viability (A204; 0.04115 µM) was 1.09 ± 0.025. For the same compound, the relative viability (A204; 0.1235 µM) was 1.08 ± 0.033, the relative viability (A204; 0.3704 µM) was 0.963 ± 0.046 and the relative viability (A204; 1.111 µM) was 0.823 ± 0.099. For the same compound, the relative viability (A204; 3.333 µM) was 0.577 ± 0.036, the relative viability (A204; 10 µM) was 0.0123 ± 0.0047 and the relative viability (G401; 0.00017 µM) was 1.01 ± 0.013. It also gave a relative viability (G401; 0.00051 µM) of 0.995 ± 0.027, a relative viability (G401; 0.00152 µM) of 1.01 ± 0.02 and a relative viability (G401; 0.00457 µM) of 1.01 ± 0.014. The relative viability (G401; 0.01372 µM) was 1.01 ± 0.014, the relative viability (G401; 0.04115 µM) was 1.01 ± 0.018 and the relative viability (G401; 0.1235 µM) was 0.9894 ± 0.0036. It also gave a relative viability (G401; 0.3704 µM) of 0.915 ± 0.042, a relative viability (G401; 1.111 µM) of 0.745 ± 0.022 and a relative viability (G401; 3.333 µM) of 0.417 ± 0.023. The relative viability (G401; 10 µM) was 0.000367 ± 0.00012, the relative viability (HT1080; 0.00017 µM) was 1.07 ± 0.017 and the relative viability (HT1080; 0.00051 µM) was 1.05 ± 0.011. It also gave a relative viability (HT1080; 0.00152 µM) of 1.07 ± 0.013, a relative viability (HT1080; 0.00457 µM) of 1.09 ± 0.03 and a relative viability (HT1080; 0.01372 µM) of 1.07 ± 0.043. For the same compound, the relative viability (HT1080; 0.04115 µM) was 1.07 ± 0.046, the relative viability (HT1080; 0.1235 µM) was 1.06 ± 0.032 and the relative viability (HT1080; 0.3704 µM) was 1.07 ± 0.074. The relative viability (HT1080; 1.111 µM) was 1.01 ± 0.026, the relative viability (HT1080; 3.333 µM) was 0.754 ± 0.032 and the relative viability (HT1080; 10 µM) was 0.00533 ± 0.0018. It also gave a relative viability (KHOS-240S; 0.00017 µM) of 1.04 ± 0.038, a relative viability (KHOS-240S; 0.00051 µM) of 1.05 ± 0.013 and a relative viability (KHOS-240S; 0.00152 µM) of 1.06 ± 0.039. The relative viability (KHOS-240S; 0.00457 µM) was 1.05 ± 0.021, the relative viability (KHOS-240S; 0.01372 µM) was 1.05 ± 0.023 and the relative viability (KHOS-240S; 0.04115 µM) was 1.05 ± 0.017. For the same compound, the relative viability (KHOS-240S; 0.1235 µM) was 1.04 ± 0.033, the relative viability (KHOS-240S; 0.3704 µM) was 0.992 ± 0.036 and the relative viability (KHOS-240S; 1.111 µM) was 0.771 ± 0.032. For the same compound, the relative viability (KHOS-240S; 3.333 µM) was 0.566 ± 0.084, the relative viability (KHOS-240S; 10 µM) was 0.0657 ± 0.0016 and the relative viability (KHOS-NP; 0.00017 µM) was 1.11 ± 0.013. It also gave a relative viability (KHOS-NP; 0.00051 µM) of 1.107 ± 0.0066, a relative viability (KHOS-NP; 0.00152 µM) of 1.09 ± 0.028 and a relative viability (KHOS-NP; 0.00457 µM) of 1.11 ± 0.019. It also gave a relative viability (KHOS-NP; 0.01372 µM) of 1.1 ± 0.038, a relative viability (KHOS-NP; 0.04115 µM) of 1.1 ± 0.021 and a relative viability (KHOS-NP; 0.1235 µM) of 1.103 ± 0.0073. It also gave a relative viability (KHOS-NP; 0.3704 µM) of 1.103 ± 0.011, a relative viability (KHOS-NP; 1.111 µM) of 1.08 ± 0.043 and a relative viability (KHOS-NP; 3.333 µM) of 0.974 ± 0.033. It also gave a relative viability (KHOS-NP; 10 µM) of 0.0806 ± 0.0086, a relative viability (RD-ES; 0.00017 µM) of 0.969 ± 0.053 and a relative viability (RD-ES; 0.00051 µM) of 0.96 ± 0.043. For the same compound, the relative viability (RD-ES; 0.00152 µM) was 0.963 ± 0.048, the relative viability (RD-ES; 0.00457 µM) was 0.95 ± 0.036 and the relative viability (RD-ES; 0.01372 µM) was 0.963 ± 0.051. For the same compound, the relative viability (RD-ES; 0.04115 µM) was 0.972 ± 0.031, the relative viability (RD-ES; 0.1235 µM) was 0.911 ± 0.058 and the relative viability (RD-ES; 0.3704 µM) was 0.745 ± 0.047. It also gave a relative viability (RD-ES; 1.111 µM) of 0.26 ± 0.018, a relative viability (RD-ES; 3.333 µM) of 0.0918 ± 0.0075 and a relative viability (RD-ES; 10 µM) of 0.00543 ± 0.00081. It also gave a relative viability (SK-ES-1; 0.00017 µM) of 1.03 ± 0.089, a relative viability (SK-ES-1; 0.00051 µM) of 1.01 ± 0.05 and a relative viability (SK-ES-1; 0.00152 µM) of 1.05 ± 0.041. It also gave a relative viability (SK-ES-1; 0.00457 µM) of 1.052 ± 0.01, a relative viability (SK-ES-1; 0.01372 µM) of 1.06 ± 0.021 and a relative viability (SK-ES-1; 0.04115 µM) of 1.03 ± 0.029. The relative viability (SK-ES-1; 0.1235 µM) was 0.979 ± 0.078, the relative viability (SK-ES-1; 0.3704 µM) was 0.673 ± 0.037 and the relative viability (SK-ES-1; 1.111 µM) was 0.0655 ± 0.0041. It also gave a relative viability (SK-ES-1; 3.333 µM) of 0.0452 ± 0.0046, a relative viability (SK-ES-1; 10 µM) of 0.00363 ± 0.0011 and a relative viability (SW1353; 0.00017 µM) of 1 ± 0.02. For the same compound, the relative viability (SW1353; 0.00051 µM) was 1 ± 0.058, the relative viability (SW1353; 0.00152 µM) was 1.018 ± 0.0041 and the relative viability (SW1353; 0.00457 µM) was 0.987 ± 0.04. It also gave a relative viability (SW1353; 0.01372 µM) of 1.02 ± 0.033, a relative viability (SW1353; 0.04115 µM) of 0.996 ± 0.054 and a relative viability (SW1353; 0.1235 µM) of 1.03 ± 0.012. The relative viability (SW1353; 0.3704 µM) was 1.01 ± 0.021, the relative viability (SW1353; 1.111 µM) was 0.999 ± 0.019 and the relative viability (SW1353; 3.333 µM) was 0.679 ± 0.016. The relative viability (SW1353; 10 µM) was 0.00907 ± 0.0044, the relative viability (SW684; 0.00017 µM) was 1.16 ± 0.061 and the relative viability (SW684; 0.00051 µM) was 1.19 ± 0.069. For the same compound, the relative viability (SW684; 0.00152 µM) was 1.17 ± 0.052, the relative viability (SW684; 0.00457 µM) was 1.23 ± 0.026 and the relative viability (SW684; 0.01372 µM) was 1.21 ± 0.044. It also gave a relative viability (SW684; 0.04115 µM) of 1.22 ± 0.045, a relative viability (SW684; 0.1235 µM) of 1.17 ± 0.023 and a relative viability (SW684; 0.3704 µM) of 1.09 ± 0.023. For the same compound, the relative viability (SW684; 1.111 µM) was 0.976 ± 0.047, the relative viability (SW684; 3.333 µM) was 0.737 ± 0.044 and the relative viability (SW684; 10 µM) was 0.0253 ± 0.0049. For the same compound, the relative viability (SW872; 0.00017 µM) was 1.06 ± 0.016, the relative viability (SW872; 0.00051 µM) was 1.07 ± 0.047 and the relative viability (SW872; 0.00152 µM) was 1.09 ± 0.034. It also gave a relative viability (SW872; 0.00457 µM) of 1.06 ± 0.044, a relative viability (SW872; 0.01372 µM) of 1.08 ± 0.056 and a relative viability (SW872; 0.04115 µM) of 1.09 ± 0.05. The relative viability (SW872; 0.1235 µM) was 1.014 ± 0.0037, the relative viability (SW872; 0.3704 µM) was 0.921 ± 0.03 and the relative viability (SW872; 1.111 µM) was 0.644 ± 0.04. The relative viability (SW872; 3.333 µM) was 0.463 ± 0.02, the relative viability (SW872; 10 µM) was -0.00847 ± 0.00051 and the relative viability (SW982; 0.00017 µM) was 1.04 ± 0.035. The relative viability (SW982; 0.00051 µM) was 1.03 ± 0.022, the relative viability (SW982; 0.00152 µM) was 1.03 ± 0.044 and the relative viability (SW982; 0.00457 µM) was 1.05 ± 0.046. For the same compound, the relative viability (SW982; 0.01372 µM) was 1.03 ± 0.047, the relative viability (SW982; 0.04115 µM) was 1.03 ± 0.058 and the relative viability (SW982; 0.1235 µM) was 0.954 ± 0.024. For the same compound, the relative viability (SW982; 0.3704 µM) was 0.628 ± 0.036, the relative viability (SW982; 1.111 µM) was 0.328 ± 0.013 and the relative viability (SW982; 3.333 µM) was 0.168 ± 0.0058. It also gave a relative viability (SW982; 10 µM) of 0.00317 ± 0.00045, a relative viability (SYO-1; 0.00017 µM) of 0.957 ± 0.032 and a relative viability (SYO-1; 0.00051 µM) of 0.982 ± 0.062. For the same compound, the relative viability (SYO-1; 0.00152 µM) was 1 ± 0.03, the relative viability (SYO-1; 0.00457 µM) was 0.99 ± 0.05 and the relative viability (SYO-1; 0.01372 µM) was 0.973 ± 0.058. The relative viability (SYO-1; 0.04115 µM) was 0.944 ± 0.034, the relative viability (SYO-1; 0.1235 µM) was 0.855 ± 0.024 and the relative viability (SYO-1; 0.3704 µM) was 0.655 ± 0.044. The relative viability (SYO-1; 1.111 µM) was 0.346 ± 0.0093, the relative viability (SYO-1; 3.333 µM) was 0.13 ± 0.0073 and the relative viability (SYO-1; 10 µM) was -0.00763 ± 0.0015.
